For the series, the target named is T1, TLR9 (Mus musculus, UniProt Q9EQU3).
T1 construct: endogenous in cells; host or cells: Flt3L-derived dendritic cells cultured from bone marrow of female Balb/C mice
T1 sequence (Q9EQU3 26-1032): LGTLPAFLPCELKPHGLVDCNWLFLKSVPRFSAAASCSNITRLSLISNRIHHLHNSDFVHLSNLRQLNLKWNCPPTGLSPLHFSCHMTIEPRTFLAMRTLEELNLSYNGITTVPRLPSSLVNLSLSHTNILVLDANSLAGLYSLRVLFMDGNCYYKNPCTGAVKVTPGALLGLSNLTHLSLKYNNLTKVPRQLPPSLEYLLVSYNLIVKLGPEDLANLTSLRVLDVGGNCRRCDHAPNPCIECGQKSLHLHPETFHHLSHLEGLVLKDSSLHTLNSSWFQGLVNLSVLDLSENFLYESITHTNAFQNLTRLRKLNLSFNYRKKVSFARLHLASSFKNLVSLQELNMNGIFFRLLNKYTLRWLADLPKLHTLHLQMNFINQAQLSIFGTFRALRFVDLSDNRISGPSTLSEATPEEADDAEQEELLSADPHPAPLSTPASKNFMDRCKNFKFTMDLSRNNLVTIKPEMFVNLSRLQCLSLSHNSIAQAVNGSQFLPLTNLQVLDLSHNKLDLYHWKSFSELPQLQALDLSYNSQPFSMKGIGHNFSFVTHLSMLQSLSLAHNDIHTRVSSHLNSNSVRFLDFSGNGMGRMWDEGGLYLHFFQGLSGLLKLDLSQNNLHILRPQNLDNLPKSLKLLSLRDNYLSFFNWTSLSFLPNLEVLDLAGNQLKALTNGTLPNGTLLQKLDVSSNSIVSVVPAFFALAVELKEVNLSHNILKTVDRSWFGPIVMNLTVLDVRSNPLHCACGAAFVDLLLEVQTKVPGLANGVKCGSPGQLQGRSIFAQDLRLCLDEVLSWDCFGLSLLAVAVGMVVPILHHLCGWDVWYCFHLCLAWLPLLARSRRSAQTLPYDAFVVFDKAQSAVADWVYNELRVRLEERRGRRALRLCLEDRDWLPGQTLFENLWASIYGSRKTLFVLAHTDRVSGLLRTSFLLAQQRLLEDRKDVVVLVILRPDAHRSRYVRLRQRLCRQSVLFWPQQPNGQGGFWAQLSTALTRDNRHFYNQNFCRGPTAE
Nature of the series: CpG ODN (TLR9 agonist)-induced IFN-α in murine Flt3L-derived dendritic cells. Particulars: murine Flt3L DC; 1:1 molar ratio. The format is cell-based. As for the experimental part:
Lipid Encapsulation of RNA and ODN. RNA or ODN were encapsulated in liposomes by a process of spontaneous vesicle formation as described in Judge et al., supra, and Jeffs et al., Pharm. Res., 22:362-372 (2005).
Flt3L-derived dendritic cells (DC) were generated as described in Gilliet et al., J. Exp. Med., 195:953-958 (2002), using 100 ng/ml murine Flt3-ligand (Peprotech) supplemented media. Femurs and tibiae of female Balb/C mice were isolated and rinsed in sterile PBS. The ends of bones were cut and marrow harvested in complete media (RPMI 1640, 10% heat inactivated FBS, 1% penicillin/streptomycin, 2 mM L-glutamine, 1 mM sodium pyruvate, 25 mM HEPES, 50 μM 2-mercaptoethanol). Bone marrow cells were passed through a 70 μm strainer and centrifuged at 1000 rpm for 7 min. and resuspended in complete media supplemented with 100 ng/ml murine Flt3L to 2×10^6 cells/ml. 2 ml of cells were seeded in 6-well plates and 1 ml fresh media was added every two to three days. On day 9 of culture, non-adherent cells were washed in complete media and plated into 96-well plates at concentrations ranging from 0.5 to 2.5×10^5 cells/well.
Loxoribine (InvivoGen; San Diego, Calif.), polyIC (Sigma-Aldrich; St. Louis, Mo.), and formulated nucleic acids were diluted in PBS and added to either human PBMC or Flt3L DC cultures. Cells were incubated 24 h at 37° C. before supernatants were assayed for cytokines by ELISA.
Cytokine ELISA. All cytokines were quantified using sandwich ELISA kits according to the manufacturer's instructions. These were mouse and human IFN-α (PBL Biomedical; Piscataway, N.J.) and IL-6 (eBioscience; San Diego, Calif.).

Results on 1 substance are retold here after patent US20080171716A1, “NUCLEIC ACID MODULATION OF TOLL-LIKE RECEPTOR-MEDIATED IMMUNE STIMULATION” (Protiva Biotherapeutics, Inc., priority 2006, published 2008).

For the substance “polyUmod21: 2′OMe-uridine homopolymer of 21 nucleotides in length (UUUUUUUUUUUUUUUUUUUUU; all 2'-O-methyl, backbone not given here)”, the “level of IFN-α induction by Type B ODN (1826) when co-formulated” value is given as “no inhibitory effect” and the “level of IFN-α induction by Type C ODN (M362) when co-formulated” value is “no inhibitory effect”.
